The test system of test [1] is MDA-MB-231 human breast adenocarcinoma. As to the kind of experiment: MDA-MB-231 xenografts, primary tumour. Format: in vivo. To be noted: ratio of average tumour volume treated/vehicle; 200 mg/kg po qd; p<0.05. The procedure:
(§1) All procedures involving animals were approved by the Animal Welfare and Ethical Review Body of the Institute of Cancer Research and Cancer Research UK Manchester Institute in accordance with National Home Office regulations under the Animals (Scientific Procedures) Act 1986 and according to the guidelines of the Committee of the National Cancer Research Institute Tumour size was determined by caliper measurements of tumour length, width and depth and volume was calculated as volume=0.5236×length×width×depth (mm).
MDA-MB-231 xenografts. […] Tumours and weights are measured twice weekly using calipers and the animals can be imaged using non-invasive method by bioluminescence using IVIS 200 imaging machine, weekly using 150 mg/kg luciferin administrate intraperitoneal or subcutaneous. […] Frozen samples kept at −80 degree centigrade until being analyzed and the fixed samples stained according to desired marker.
(§2) For therapeutic efficacy assessment, the ratio of average tumour volume between compound treated and vehicle control treated (T/C) is calculated. […] The efficacy of LOX inhibitors described in this invention, as measured by T/C in a pancreatic cancer model, a colorectal cancer model and a breast cancer model is shown in Table 3 and is significant (p<0.05) for all the data presented.

The subject of test [2] is MMTV-PyMT lung metastases. As to the kind of experiment: MMTV-PyMT transgenic mouse breast cancer model, lung metastases. The test is classed as in vivo, mice. To be noted: @67 mpk po qd, p<0.05. How it is done: (§3) LOX Inhibitor Treatment of a Transgenic Mouse Breast Cancer Model
MMTV-PyMT (Guy et al, 1992) (FVB) female mice were randomized by non-statistical methods to LOX inhibitor treatment groups from day 70 post-birth, when animals had no detectable tumour. Mice were treated daily by oral gavage with LOX inhibitor in vehicle, or daily vehicle (5% DMSO/2.5% Tween20 in water) by oral gavage. Tumour size was determined unblinded by caliper measurements of tumour length, width and depth and volume was calculated as 0.5236×length×width×depth (mm). In all experiments, mice were humanely killed and mammary tumours and lungs were collected when the primary tumours reached ethical limits or signs of ill health.
For lung metastases quantification, all mouse tissue samples were fixed in 10% formalin (Sigma) and embedded in paraffin. […] Lung metastases number was counted and area was measured using ImageScope. […] The ratio of average metastases surface between compound treated and vehicle control treated (T/C) is calculated. The ratio of average metastases numbers between compound treated and vehicle control treated (T/C) is also calculated. […] The antimetastatic efficacy of LOX inhibitors described in this invention, as measured by T/C in a model of breast cancer metastasizing to lungs is shown in Table 3 and is significant (p<0.05) for all the data presented.

The subject of test [3] is MMTV-PyMT mammary tumours. As to the kind of experiment: MMTV-PyMT transgenic mouse breast cancer model, primary tumour. To be noted: ratio of average tumour volume treated/vehicle; @67 mpk po qd; p<0.05. Format: in vivo, mice. How it is done:
as §1, §3
MMTV-PyMT (Guy et al, 1992) (FVB) female mice were randomized by non-statistical methods to LOX inhibitor treatment groups from day 70 post-birth, when animals had no detectable tumour. […] Tumour size was determined unblinded by caliper measurements of tumour length, width and depth and volume was calculated as 0.5236×length×width×depth (mm). […]
as §2

For the compound `CCOc1ccc(N2C[C@H]3CN(C(=O)NCCO)C[C@H]3C2)cc1` [Example 1, cis-5-(4-Ethoxyphenyl)-N-(2-hydroxyethyl)hexahydropyrrolo[3,4-c]pyrrole-2(1H)-carboxamide], the “T/C, MDA-MB-231 human breast adenocarcinoma - primary tumour” value in test [1] was 0.29. The “T/C, MMT-PyMT breast transgenic model - metastases a) Count” value in test [2] (ratio of average lung metastases numbers treated/vehicle) is “a) 0.14”. The “T/C, MMT-PyMT breast transgenic model - metastases b) Area” value in test [2] (ratio of average lung metastases surface treated/vehicle) is “b) 0.02”. In addition, the “T/C, MMT-PyMT breast transgenic model - primary tumour” value in test [3] is recorded as 0.3.

For the origin of these results see US12018029B2, “Hexahydropyrrolo[3,4-c]pyrrole derivatives useful as LOX inhibitors” (THE INSTITUTE OF CANCER RESEARCH: ROYAL CANCER HOSPITAL, priority 2018, dated 2024).
